Values quoted from earlier work, collected in patent US8557989B2, “Electrochemical affinity biosensor system and methods” (priority 2003, dated 2013).

Biological target: glucose oxidase (Aspergillus niger, UniProt P13006)
Conditions: with glucose oxidase

Sequence of glucose oxidase (P13006 17-605): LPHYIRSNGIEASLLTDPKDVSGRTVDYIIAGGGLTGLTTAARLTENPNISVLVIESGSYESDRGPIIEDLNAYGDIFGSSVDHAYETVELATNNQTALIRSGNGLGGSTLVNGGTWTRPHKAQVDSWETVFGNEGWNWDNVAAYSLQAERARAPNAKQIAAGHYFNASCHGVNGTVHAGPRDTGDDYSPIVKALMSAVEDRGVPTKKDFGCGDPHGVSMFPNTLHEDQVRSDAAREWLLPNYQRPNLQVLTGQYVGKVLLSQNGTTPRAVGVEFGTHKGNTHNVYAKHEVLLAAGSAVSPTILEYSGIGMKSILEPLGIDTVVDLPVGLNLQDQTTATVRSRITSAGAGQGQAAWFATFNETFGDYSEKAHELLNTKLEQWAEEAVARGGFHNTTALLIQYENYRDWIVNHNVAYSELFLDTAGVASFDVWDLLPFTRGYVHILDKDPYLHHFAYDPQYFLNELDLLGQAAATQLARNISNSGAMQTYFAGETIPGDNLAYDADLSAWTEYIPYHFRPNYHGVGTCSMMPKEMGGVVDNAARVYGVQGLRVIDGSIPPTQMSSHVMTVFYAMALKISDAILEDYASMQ

bis(2,2′-bipyridyl) imidazole chloro osmium (III) dichloride [osmium free mediator]
mediation kinetics, times faster than ferricyanide: about 500 times
